Experimental data as given in paper PMC7181660, “A novel specific PERK activator reduces toxicity and extends survival in Huntington's disease models” (Scientific Reports, 2020).
Where “and” joins values, the source holds several entries; their conditions need not be identical. Equal values may be shown once. Read-outs that look alike come from different tables or passages of the source.

Legend:
Experiment in all cases: biochemical
Type in all cases: biochemical
panel of 391 kinases [1] = biological target: panel of 391 kinases (Homo sapiens, UniProt P54753); conditions: EPHB3, MK-28 1 µM, ATP 1 µM
panel of 391 kinases [2] = conditions: for % Enzyme Activity (relative to DMSO controls): MK-28 1 µM, ATP 1 µM
panel of 391 kinases [3] = biological target: panel of 391 kinases (Homo sapiens, UniProt Q8IYT8); conditions: ULK2, MK-28 1 µM, ATP 1 µM
panel of 391 kinases [4] = biological target: panel of 391 kinases (Homo sapiens, UniProt P51812); conditions: RSK2, MK-28 1 µM, ATP 1 µM
panel of 391 kinases [5] = biological target: panel of 391 kinases (Homo sapiens, UniProt Q15759); conditions: P38b/MAPK11, MK-28 1 µM, ATP 1 µM
panel of 391 kinases [6] = biological target: panel of 391 kinases (Homo sapiens, UniProt Q14164); conditions: IKKe/IKBKE, MK-28 1 µM, ATP 1 µM
panel of 391 kinases [7] = biological target: panel of 391 kinases (Homo sapiens, UniProt Q12851); conditions: GCK/MAP4K2, MK-28 1 µM, ATP 1 µM
panel of 391 kinases [8] = biological target: panel of 391 kinases (Homo sapiens, UniProt Q13153); conditions: PAK1, MK-28 1 µM, ATP 1 µM
panel of 391 kinases [9] = biological target: panel of 391 kinases (Homo sapiens, UniProt Q00526); conditions: MK-28 1 µM, ATP 1 µM; for remaining activity at 1 µM: read-out: % Enzyme Activity (relative to DMSO controls)
panel of 391 kinases [10] = biological target: panel of 391 kinases (Homo sapiens, UniProt O95747); conditions: OSR1/OXSR1, MK-28 1 µM, ATP 1 µM
panel of 391 kinases [11] = biological target: panel of 391 kinases (Homo sapiens, UniProt P80192); conditions: MLK1/MAP3K9, MK-28 1 µM, ATP 1 µM
panel of 391 kinases [12] = biological target: panel of 391 kinases (Homo sapiens, UniProt Q13555); conditions: CAMK2g, MK-28 1 µM, ATP 1 µM
panel of 391 kinases [13] = biological target: panel of 391 kinases (Homo sapiens, UniProt O00418); conditions: kinase EEF2K, compound at 1 µM, single dose in duplicates, 1 µM ATP
panel of 391 kinases [14] = biological target: panel of 391 kinases (Homo sapiens, UniProt O75676); conditions: MSK2/RPS6KA4, MK-28 1 µM, ATP 1 µM
panel of 391 kinases [15] = biological target: panel of 391 kinases (Homo sapiens, UniProt P23458); conditions: JAK1, MK-28 1 µM, ATP 1 µM
panel of 391 kinases [16] = biological target: panel of 391 kinases (Homo sapiens, UniProt P35916); conditions: FLT4/VEGFR3, MK-28 1 µM, ATP 1 µM
panel of 391 kinases [17] = biological target: panel of 391 kinases (Homo sapiens, UniProt P30291); conditions: WEE1, MK-28 1 µM, ATP 1 µM
panel of 391 kinases [18] = biological target: panel of 391 kinases (Homo sapiens, UniProt Q9NRH2); conditions: SNRK, MK-28 1 µM, ATP 1 µM
panel of 391 kinases [19] = biological target: panel of 391 kinases (Homo sapiens, UniProt P28482); conditions: ERK2/MAPK1, MK-28 1 µM, ATP 1 µM
panel of 391 kinases [20] = biological target: panel of 391 kinases (Homo sapiens, UniProt Q9Y3S1); conditions: WNK2, MK-28 1 µM, ATP 1 µM
panel of 391 kinases [21] = biological target: panel of 391 kinases (Homo sapiens, UniProt Q9BYP7); conditions: WNK3, MK-28 1 µM, ATP 1 µM
panel of 391 kinases [22] = biological target: panel of 391 kinases (Homo sapiens, UniProt Q9P2K8); conditions: kinase EIF2AK4, compound at 1 µM, single dose in duplicates, 1 µM ATP
panel of 391 kinases [23] = biological target: panel of 391 kinases (Homo sapiens, UniProt Q96NX5); conditions: CAMK1g, MK-28 1 µM, ATP 1 µM
panel of 391 kinases [24] = biological target: panel of 391 kinases (Homo sapiens, UniProt Q9NYL2); conditions: ZAK/MLTK, MK-28 1 µM, ATP 1 µM
panel of 391 kinases [25] = biological target: panel of 391 kinases (Homo sapiens, UniProt Q99759); conditions: MEKK3, MK-28 1 µM, ATP 1 µM
panel of 391 kinases [26] = biological target: panel of 391 kinases (Homo sapiens, UniProt P52333); conditions: JAK3, MK-28 1 µM, ATP 1 µM
[27] = read-out: % Enzyme Activity (relative to DMSO controls)

CN(/N=C\c1ccc(O)c(O)c1)c1nc(-c2ccccc2)cc(-c2ccccc2)n1 [MK-28]
% Enzyme Activity (relative to DMSO controls) (panel of 391 kinases [1]): 97.56% | remaining activity at 1 µM (panel of 391 kinases [1]; [27]): 99.2% | number of other hits showing more than 30% increase over control (panel of 391 kinases [2]; 1 μM, 391-kinase panel): 3 | % Enzyme Activity (relative to DMSO controls) (panel of 391 kinases [2]; LYN B): 100.85% and 99.31% | % Enzyme Activity (relative to DMSO controls) (panel of 391 kinases [2]; PKCb2): 90.95% and 90.23% | % Enzyme Activity (relative to DMSO controls) (panel of 391 kinases [2]; PKG1b): 113.02% and 112.43% | % Enzyme Activity (relative to DMSO controls) (panel of 391 kinases [3]): 98.62% | remaining activity at 1 µM (panel of 391 kinases [3]; [27]): 102% | % Enzyme Activity (relative to DMSO controls) (panel of 391 kinases [4]): 95.23% | remaining activity at 1 µM (panel of 391 kinases [4]; [27]): 99.7% | % Enzyme Activity (relative to DMSO controls) (panel of 391 kinases [5]): 107.60% | remaining activity at 1 µM (panel of 391 kinases [5]; [27]): 109% | % Enzyme Activity (relative to DMSO controls) (panel of 391 kinases [6]): 93.45% | remaining activity at 1 µM (panel of 391 kinases [6]; [27]): 96% | % Enzyme Activity (relative to DMSO controls) (panel of 391 kinases [7]): 97.18% | remaining activity at 1 µM (panel of 391 kinases [7]; [27]): 97.2% | % Enzyme Activity (relative to DMSO controls) (panel of 391 kinases [8]): 100.75% | remaining activity at 1 µM (panel of 391 kinases [8]; [27]): 102% | % Enzyme Activity (relative to DMSO controls) (panel of 391 kinases [9]; CDK3/cyclin E2): 90.11% | remaining activity at 1 µM (panel of 391 kinases [9]; CDK3/cyclin E2): 92.8% | % Enzyme Activity (relative to DMSO controls) (panel of 391 kinases [9]; CDK3/cyclin E): 101.82% | remaining activity at 1 µM (panel of 391 kinases [9]; CDK3/cyclin E): 102% | % Enzyme Activity (relative to DMSO controls) (panel of 391 kinases [10]): 101.98% | remaining activity at 1 µM (panel of 391 kinases [10]; [27]): 105% | % Enzyme Activity (relative to DMSO controls) (panel of 391 kinases [11]): 91.08% | remaining activity at 1 µM (panel of 391 kinases [11]; [27]): 91.3% | % Enzyme Activity (relative to DMSO controls) (panel of 391 kinases [12]): 86.57% | remaining activity at 1 µM (panel of 391 kinases [12]; [27]): 87.8% | % Enzyme Activity (relative to DMSO controls) (panel of 391 kinases [13]): 90.89% | remaining activity at 1 µM (panel of 391 kinases [13]; [27]): 91% | % Enzyme Activity (relative to DMSO controls) (panel of 391 kinases [14]): 94.82% | remaining activity at 1 µM (panel of 391 kinases [14]; [27]): 96.8% | % Enzyme Activity (relative to DMSO controls) (panel of 391 kinases [15]): 100.53% | remaining activity at 1 µM (panel of 391 kinases [15]; [27]): 101% | % Enzyme Activity (relative to DMSO controls) (panel of 391 kinases [16]): 92.88% | remaining activity at 1 µM (panel of 391 kinases [16]; [27]): 94.1% | % Enzyme Activity (relative to DMSO controls) (panel of 391 kinases [17]): 112.80% | remaining activity at 1 µM (panel of 391 kinases [17]; [27]): 114% | % Enzyme Activity (relative to DMSO controls) (panel of 391 kinases [18]): 99.62% | remaining activity at 1 µM (panel of 391 kinases [18]; [27]): 100% | % Enzyme Activity (relative to DMSO controls) (panel of 391 kinases [19]): 105.81% | remaining activity at 1 µM (panel of 391 kinases [19]; [27]): 107% | % Enzyme Activity (relative to DMSO controls) (panel of 391 kinases [20]): 89.30% | remaining activity at 1 µM (panel of 391 kinases [20]; [27]): 90.7% | % Enzyme Activity (relative to DMSO controls) (panel of 391 kinases [21]): 104.23% | remaining activity at 1 µM (panel of 391 kinases [21]; [27]): 105% | % Enzyme Activity (relative to DMSO controls) (panel of 391 kinases [22]): 87.73% | remaining activity at 1 µM (panel of 391 kinases [22]; [27]): 88.1% | % Enzyme Activity (relative to DMSO controls) (panel of 391 kinases [23]): 96.34% | remaining activity at 1 µM (panel of 391 kinases [23]; [27]): 100% | % Enzyme Activity (relative to DMSO controls) (panel of 391 kinases [24]): 104.97% | remaining activity at 1 µM (panel of 391 kinases [24]; [27]): 105% | % Enzyme Activity (relative to DMSO controls) (panel of 391 kinases [25]): 87.80% | remaining activity at 1 µM (panel of 391 kinases [25]; [27]): 93.8% | % Enzyme Activity (relative to DMSO controls) (panel of 391 kinases [26]): 104.48% | remaining activity at 1 µM (panel of 391 kinases [26]; [27]): 106%
